“And” between values parts separate entries of the source, which are not always exact repeats. Equal entries are not always repeated.
Assays:
[1] = test system: patients with advanced solid tumors; assay: Phase I dose escalation: dose-limiting toxicities, MTD and adverse events
tumor cell lines = settings: read-out: in vitro IC50 for tumor cell lines; cited from earlier work
[2] = triapine 0.01–1 mg/mL in 0.9 % sodium chloride, protected from light, room temperature or 2–8°C; cited from earlier work
advanced solid tumors = assay: Tumor response; type: in vivo, human
[3] = test system: human ribonucleotide reductase M2 subunit (hRRM2); assay: Circulating serum hRRM2 by ELISA; type: in vivo; settings: during treatment cycles 1 and 2, 21 of 28 patients
[4] = test system: patients with advanced solid tumors; settings: human, in vivo, 4 weeks
[5] = Steady-state plasma triapine; type: in vivo, human; settings: for clearance: human, plasma
[6] = cited from earlier work
[7] = 36 patients, all dose levels, triapine + FDR gemcitabine
[8] = of 15 patients with stable disease
[9] = of 30 evaluable patients, triapine + FDR gemcitabine
[10] = of 30 evaluable patients, triapine + FDR gemcitabine, RECIST 1.0
[11] = Arm A and B combined, dose 160, N=2, individual values

For `NC(=S)NN=Cc1ncccc1N` [triapine, 3-Aminopyridine-2-carboxaldehyde thiosemicarbazone], the “Flu-Like Syndrome, Grade 1/2” value [1, 7] was 4 (11) N (%), the “Flu-Like Syndrome, Grade 3” value [1, 7] was 0 N (%) and the “Flu-Like Syndrome, Grade 4” value [1, 7] was 0 N (%). For the same compound, the “Infection, Grade 3” value [1, 7] was 3 (8) N (%), the “Infection, Grade 4” value [1, 7] was 0 N (%) and the “MTD (maximum tolerated dose)” value ([1]; triapine 24-hour infusion immediately followed by gemcitabine 1000 mg/m^2 (100-minute infusion), every 2 weeks of a 4-week cycle) was 90 mg. The IC50 (tumor cell lines) was 1000 to 2000 nM, the stability of admixture [2] was 96 h and the “median time to progression” value (advanced solid tumors; 15 patients with stable disease, 95 % CI 84–115 days) was 111 days. For the same compound, the disease control rate (advanced solid tumors; 30 evaluable patients, SD + PR, triapine + FDR gemcitabine) was 53%, the “patients with prolonged stable disease more than 3 months” value (advanced solid tumors; [8]) was 12 patients and the “stable-disease patients who had previously progressed on gemcitabine” value (advanced solid tumors; [8]) was 7 patients. For the same compound, the “partial response (number of patients)” value (advanced solid tumors; [9]) was 1 patients, the “progressive disease (number of patients)” value (advanced solid tumors; [9]) was 14 patients and the “stable disease (number of patients)” value (advanced solid tumors; [9]) was 15 patients. The partial response (advanced solid tumors; [10]) was 3%, the stable disease (advanced solid tumors; [10]) was 50% and the “median time to tumor progression” value (advanced solid tumors; patients with SD) was ~4 months. The “patients with decline in hRRM2 levels” value [3] was 75%, the “recommended phase II dose (RP2D)” value [4] was 90 mg and the Css ([5]; Arm A and B combined, 31 patients, 75 to 160 mg over 24-hour i.v. infusion Day 1, mean ± SD) was 400 ± 140 nM. For the same compound, the Css ([5]; Arm A and B combined, dose 75, N=5, mean ± SD) was 370 ± 50 nM, the Css ([5]; Arm A and B combined, dose 90, N=15, mean ± SD) was 380 ± 180 nM and the Css ([5]; Arm A and B combined, dose 120, N=9, mean ± SD) was 440 ± 120 nM. For the same compound, the CL [5, 11] was 42.80 L/h, the Css [5, 11] was 520 nM and 460 nM and the “Css (range)” value ([5]; Arm A, 75 to 160 mg) was 240 to 820 nM. It also gave a Css ([5]; Arm A, all doses 75 to 160 mg, mean ± SD) of 430 ± 140 nM, a Css ([5]; Arm A, dose 75 (head prints mg/m^2), 24-h i.v. infusion, day 1 cycle 1, N=1) of 410 nM and a Css ([5]; Arm A, dose 90, 24-h i.v. infusion, N=5, mean ± SD) of 450 ± 230 nM. The Css ([5]; Arm A, dose 120, 24-h i.v. infusion, N=5, mean ± SD) was 390 ± 90 nM, the Css ([5]; Arm A, dose 160, 24-h i.v. infusion, N=2, individual values) was 520 nM and 460 nM and the CL ([5]; Arm A, dose 160, N=2, individual values) was 42.80 L/h. The “Css (range)” value ([5]; Arm B, 75 to 120 mg) was 190 to 720 nM, the Css ([5]; Arm B, all doses 75 to 120 mg, mean ± SD) was 380 ± 140 nM and the Css ([5]; Arm B, dose 75, 24-h i.v. infusion, N=4, mean ± SD) was 360 ± 50 nM. For the same compound, the Css ([5]; Arm B, dose 90, 24-h i.v. infusion, N=10, mean ± SD) was 350 ± 150 nM, the Css ([5]; Arm B, dose 120, 24-h i.v. infusion, N=4, mean ± SD) was 470 ± 170 nM and the “mean Css” value ([5]; females, n = 18) was 440 ± 160 nM. It also gave a clearance ([5]; intravenous, 75 mg, CL, Arm B, dose 75, N=4, mean ± SD) of 431 mL/min, a clearance ([5]; intravenous, 90 mg, CL, Arm A, dose 90, N=5, mean ± SD) of 497 mL/min and a clearance ([5]; intravenous, 90 mg, CL, Arm B, dose 90, N=10, mean ± SD) of 613 mL/min. For the same compound, the clearance ([5]; intravenous, 120 mg, CL, Arm A and B combined, dose 120, N=9, mean ± SD) was 596 mL/min, the clearance ([5]; intravenous, 120 mg, CL, Arm A, dose 120, N=5, mean ± SD) was 653 mL/min and the clearance ([5]; intravenous, 120 mg, CL, Arm B, dose 120, N=4, mean ± SD) was 560 mL/min. It also gave a clearance ([5]; intravenous, 160 mg, CL, Arm A, dose 160, N=2, individual values) of 635 mL/min, a clearance ([5]; intravenous, CL (range), Arm A and B combined, 31 patients, 75 to 160 mg) of 226 to 899 mL/min and a clearance ([5]; intravenous, CL (range), Arm A, 75 to 160 mg) of 226 to 804 mL/min. The clearance ([5]; intravenous, CL (range), Arm B, 75 to 120 mg) was 265 to 899 mL/min, the clearance ([5]; intravenous, CL, Arm A, all doses 75 to 160 mg, mean ± SD) was 580 mL/min and the clearance ([5]; intravenous, CL, Arm B, all doses 75 to 120 mg, mean ± SD) was 561 mL/min. For the same compound, the clearance ([5]; iv, CL, Arm A and B combined, 31 patients, 75 to 160 mg over 24-hour i.v. infusion Day 1, mean ± SD) was 562 mL/min, the “mean Css” value ([5]; males, n = 13) was 330 ± 80 nM and the “variability of Css and CL (coefficient of variation)” value ([5]; within and between dose groups) was “approximately 30%”.

In the case of `Nc1ccn([C@@H]2O[C@H](CO)[C@@H](O)C2(F)F)c(=O)n1` [gemcitabine], the steady-state plasma levels ([6]; gemcitabine at fixed-dose-rate 10 mg/m^2/min) is given as 15 to 20 µmol/L and the “plasma gemcitabine concentration above which dFdCTP accumulation is saturated” value ([6]; peripheral blood mononuclear cells and circulating leukemic blasts) is given as 15 to 20 µmol/L.
